Reference: ChEMBL document CHEMBL4665799, “Synthesis and biological evaluation of diaryl urea derivatives as FLT3 inhibitors” (Bioorg Med Chem Lett, 2020)

Assays:
[1] = tested on: Receptor-type tyrosine-protein kinase FLT3 (Homo sapiens), P36888 [UNDEFINED MUTATION]; conditions: dose 500.0 nM
Description: Inhibition of FLT3 ITD mutant (unknown origin) at 500 nM relative to control

[2] = biological target: Receptor-type tyrosine-protein kinase FLT3 (Homo sapiens, UniProt P36888, ITD)
Description: Inhibition of FLT3 ITD mutant (unknown origin)

MV4-11 [3] = assay: cells; conditions: Homo sapiens
Description: Antiproliferative activity against human MV4-11 cells assessed as reduction in cell viability

MV4-11 [4] = assay: Potency index, ratio of quizartinib IC50 to test compound IC50 for antiproliferative activity against human MV4-11 cells assessed as reduction in cell viability; format: functional

Chain of Receptor-type tyrosine-protein kinase FLT3 (P36888 whole entry, looked up, change not shown): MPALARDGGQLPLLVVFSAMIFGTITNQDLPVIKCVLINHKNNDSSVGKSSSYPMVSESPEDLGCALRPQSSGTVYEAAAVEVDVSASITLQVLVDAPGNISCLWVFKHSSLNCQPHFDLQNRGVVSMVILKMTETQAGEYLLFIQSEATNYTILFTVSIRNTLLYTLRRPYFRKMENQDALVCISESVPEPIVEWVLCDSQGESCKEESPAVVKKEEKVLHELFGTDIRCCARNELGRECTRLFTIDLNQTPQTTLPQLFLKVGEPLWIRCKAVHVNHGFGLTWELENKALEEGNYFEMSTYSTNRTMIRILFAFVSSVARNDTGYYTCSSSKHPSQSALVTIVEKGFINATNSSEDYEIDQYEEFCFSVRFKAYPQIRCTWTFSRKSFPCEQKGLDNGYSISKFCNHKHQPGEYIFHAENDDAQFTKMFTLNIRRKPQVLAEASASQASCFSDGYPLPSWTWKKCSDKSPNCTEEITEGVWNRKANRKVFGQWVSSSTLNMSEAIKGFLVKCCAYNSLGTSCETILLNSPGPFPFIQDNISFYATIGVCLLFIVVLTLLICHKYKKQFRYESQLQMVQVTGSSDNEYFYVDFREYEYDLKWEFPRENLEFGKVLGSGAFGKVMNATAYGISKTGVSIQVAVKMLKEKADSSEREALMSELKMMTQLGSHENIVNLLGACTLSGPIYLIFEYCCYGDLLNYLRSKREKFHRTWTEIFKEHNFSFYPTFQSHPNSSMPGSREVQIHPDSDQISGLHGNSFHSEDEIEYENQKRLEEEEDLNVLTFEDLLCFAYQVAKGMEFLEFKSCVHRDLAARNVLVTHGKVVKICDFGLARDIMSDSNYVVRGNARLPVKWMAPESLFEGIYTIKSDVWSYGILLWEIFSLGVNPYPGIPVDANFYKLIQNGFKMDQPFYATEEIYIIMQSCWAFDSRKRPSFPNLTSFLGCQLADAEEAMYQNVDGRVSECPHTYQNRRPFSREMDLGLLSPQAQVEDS
Chain of Receptor-type tyrosine-protein kinase FLT3 (Homo sapiens), P36888 [UNDEFINED MUTATION] (P36888 whole entry, looked up, change not shown): as above

Row | SMILES | inhibition [1] [%] | IC50 [2] [nM] | IC50 (MV4-11 [3]) [nM] | Ratio IC50 (MV4-11 [4])
1 | COc1ccc2nc(NC(=O)Cc3ccc(NC(=O)Nc4cc(C)no4)cc3)sc2c1 | 4.5 | – | – | –
2 | COc1ccc2nc(NC(=O)Cc3ccc(NC(=O)Nc4cc(C(C)(C)C)no4)cc3)sc2c1 | 6.4 | – | – | –
3 | CC(C)(C)c1cc(NC(=O)Nc2ccc(C(=O)Nc3ccc(-c4cn5c(n4)sc4cc(OCCN6CCOCC6)ccc45)cc3)cc2)on1 | 41.9 | – | – | –
4 | CC(C)(C)c1cc(NC(=O)Nc2ccc3c(c2)sc2nc(-c4ccc(OCCN5CCOCC5)cc4)cn23)no1 | 98.8 | 8.25 | 0.782 | –
5 | Cc1cc(NC(=O)Nc2ccc(C(=O)Nc3ccc(-c4cn5c(n4)sc4cc(OCCN6CCOCC6)ccc45)cc3)cc2)no1 | 29 | – | – | –
6 | COc1ccc2c(c1)sc1nc(-c3ccc(NC(=O)Nc4cc(C)no4)cc3)cn12 | 52.6 | – | – | –
7 | Cc1cc(NC(=O)Nc2ccc(C(=O)Nc3ccc(-c4cn5c(n4)sc4cc(OCCN6CCOCC6)ccc45)cc3)cc2)on1 | 28.1 | – | – | –
8 | Cc1cc(NC(=O)Nc2ccc(CC(=O)Nc3ccc(-c4cn5c(n4)sc4cc(OCCN6CCOCC6)ccc45)cc3)cc2)on1 | 45.9 | – | – | –
9 | COc1ccc2c(c1)sc1nc(-c3ccc(NC(=O)Nc4cc(C(C)(C)C)no4)cc3)cn12 | 97.2 | 20.5 | 1.97 | –
10 | Cc1cc(NC(=O)Nc2ccc3c(c2)sc2nc(-c4ccc(OCCN5CCOCC5)cc4)cn23)no1 | 82.5 | 82.6 | 39.9 | –
11 | Cc1cc(NC(=O)Nc2ccc3c(c2)sc2nc(-c4ccc(OCCN5CCOCC5)cc4)cn23)on1 | 76.9 | 109 | 88.7 | –
12 | Cc1cc(NC(=O)Nc2ccc(CC(=O)Nc3ccc(-c4cn5c(n4)sc4cc(OCCN6CCOCC6)ccc45)cc3)cc2)no1 | 35.8 | – | – | –
13 | COc1ccc2nc(NC(=O)Cc3ccc(NC(=O)Nc4cc(C)on4)cc3)sc2c1 | -2 | – | – | –
14 | COc1ccc2nc(NC(=O)Cc3ccc(NC(=O)Nc4cc(C(C)(C)C)on4)cc3)sc2c1 | 2.5 | – | – | –
15 | COc1ccc2c(c1)sc1nc(-c3ccc(NC(=O)Nc4cc(C)on4)cc3)cn12 | 67.3 | – | – | –
16 | Cc1cc(NC(=O)Nc2ccc(-c3cn4c(n3)sc3cc(OCCN5CCOCC5)ccc34)cc2)no1 | 79.9 | – | – | –
17 | CC(C)(C)c1cc(NC(=O)Nc2ccc(C(=O)Nc3ccc(-c4cn5c(n4)sc4cc(OCCN6CCOCC6)ccc45)cc3)cc2)no1 | 35 | – | – | –
18 | CC(C)(C)c1cc(NC(=O)Nc2ccc(CC(=O)Nc3ccc(-c4cn5c(n4)sc4cc(OCCN6CCOCC6)ccc45)cc3)cc2)on1 | 38.5 | – | – | –
19 | CC(C)(C)c1cc(NC(=O)Nc2ccc(-c3cn4c(n3)sc3cc(OCCN5CCOCC5)ccc34)cc2)on1 | 99.6 | 5.6 | 0.176 | 4.75
20 | Cc1cc(NC(=O)Nc2ccc(-c3cn4c(n3)sc3cc(OCCN5CCOCC5)ccc34)cc2)on1 | 66.7 | 157 | 33.1 | –
21 | CC(C)(C)c1cc(NC(=O)Nc2ccc3c(c2)sc2nc(-c4ccc(OCCN5CCOCC5)cc4)cn23)on1 | 99.3 | 6.83 | 0.614 | –
22 | CC(C)(C)c1cc(NC(=O)Nc2ccc(CC(=O)Nc3ccc(-c4cn5c(n4)sc4cc(OCCN6CCOCC6)ccc45)cc3)cc2)no1 | 36 | – | – | –
